Assay results as given in US20030162825A1, “D-amino acid oxidase inhibitors for learning and memory” (SEPRACOR INC., priority 2001, published 2003).
“Also recorded” adds a separate entry of the source.

Columns and labels:
[1] = molecular target: T1, Porcine kidney D-amino acid oxidase (Sus scrofa, UniProt P00371); assay: D-amino acid oxidase inhibition assay (Amplex Red Hydrogen Peroxide Assay Kit); type: biochemical; conditions: D-serine substrate, reaction time five minutes; for inhibition at 40 µg/mL: inhibitor at 40 μg/mL
T1 construct: purchased Sigma Company A-5222; host or cells: porcine kidney
T1 sequence (P00371 whole entry): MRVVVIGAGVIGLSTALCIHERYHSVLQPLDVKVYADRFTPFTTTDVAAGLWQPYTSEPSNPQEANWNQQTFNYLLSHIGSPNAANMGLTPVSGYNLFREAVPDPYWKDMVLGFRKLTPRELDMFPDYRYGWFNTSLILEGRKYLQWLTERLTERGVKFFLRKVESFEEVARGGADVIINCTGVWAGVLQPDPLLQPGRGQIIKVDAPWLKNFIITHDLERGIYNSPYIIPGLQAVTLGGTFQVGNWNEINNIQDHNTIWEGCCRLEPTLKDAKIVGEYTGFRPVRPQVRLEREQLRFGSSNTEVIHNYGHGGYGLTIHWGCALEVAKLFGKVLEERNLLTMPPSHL
Protocol: A working solution was prepared by mixing: sodium phosphate buffer (8.7 ml, 0.025M, pH 7.4), D-serine solution (1.0 ml, 100 mM in water), horseradish peroxidase (0.2 ml, 200 U/ml in buffer), and Amplex™ Red solution (0.1 ml, 1 mg dye in 200 μl in DMSO (50 μM in DMSO)). A working enzyme solution was prepared by diluting a D-amino oxidase stock solution (65 U/ml) one hundred fold. The working solution (100 μl) was transferred to wells of a Microfluor B microtiter plate and a solution of the inhibitor in DMF was added.
Control experiments were carried out using DMF in the absence of inhibitor.

rats = assay: Morris water maze test (learning and memory); type: in vivo, rat
Protocol: Training was conducted in a circular pool (160 cm in diameter) filled with water to a depth of 35 cm. The walls of the pool were blue, and the water was made opaque by the addition of approximately 20 ml of white, non-toxic water-based food dye. Water temperature was maintained at approximately 25° C.
During training, rats learn to swim to a submerged platform (approximately 2.5 cm below the surface) constructed of Nalgene with a roughened Plexiglas surface. The surface diameter was approximately 16 cm and its height was approximately 27.5 cm. Experiments were conducted in a darkened room. Lighting of the water-maze was arranged so that illumination of the pool was dim and equivalent in all quadrants. Both acquisition data and retention probe data were collected using Videomex Morris maze software and interface (Columbus Instruments, Columbus, Ohio). The apparatus monitored the animal's progress using a video camera connected to a monitor and a video analysis computer that was outside the view of the swimming animal. Latencies to escape to the platform, the animal's swimming route, and its time spent in the platform-containing quadrant were measured.
Morris maze acquisition training (learning) consisted of 18 trials presented in 6 blocks of 3 trials each. During all training and testing procedures, the experimenter was blind to the animal group membership. To orient the animals to the task, training began with placement of the animal's front paws onto the platform followed by 10 sec of the animal's standing on the platform. Immediately after the third placement, training commenced with the first block of 3 trials. The platform was placed in the center of the southwest quadrant for all training. On each trial, rats were placed into the pool randomly at one of 6 different angular directions. […] Latency to escape to the platform was measured for each trial. […]
[…] The amount of time spent in the quadrant previously occupied by the platform and number of crosses over the previous position of the platform were recorded for each animal. […]

Row | Compound | inhibition at 40 µg/mL [1] [%] | IC50 [1] [µM] | other results
1 | O=C(O)c1ccc[nH]1 [compound 3] | 87 |  | 
2 | O=C(O)c1cc2ccccc2[nH]1 [I-2-C, indole-2-carboxylic acid] |  |  | retention (seconds swimming in the quadrant previously containing the escape platform) (rats; first experiment: 200 mg/kg ip four times, one hour before first, second, fourth and sixth training period, four days after training): improved retention; retention in seconds (rats; second experiment: single injection 200 mg/kg, eight days later, 200 mg/kg): improving effect on retention; also recorded: improved retention; retention (rats; third experiment: single injection 200 mg/kg, first probe trial): improved retention
3 | Cn1c(C(=O)O)cc2ccccc21 [compound 6] | 58 |  | 
4 | O=C(O)c1cc2ccccc2o1 [compound 5] | 85 |  | 
5 | O=C(O)c1ccc([N+](=O)[O-])c2c1NC(c1ccc([N+](=O)[O-])cc1)C1CC=CC21 (stereo not shown) [compound 11] |  | 29 | 
6 | O=C(O)c1ccc([N+](=O)[O-])c2c1NC(c1ccccc1)C1CC=CC21 (stereo not shown) [compound 10] |  | 17 | 

The next lines start with results.

Row | inhibition at 40 µg/mL [1] [%] | IC50 [1] [µM] | Compound | other results
7 | 90 |  | O=C(O)c1cc2cc(O)ccc2[nH]1 [compound 2] | 
8 | 93 | 2 | O=C(O)c1cc2ccccc2[nH]1 [compound 1] | 
9 | 86 |  | O=C(O)c1cc2cc(Cl)ccc2[nH]1 [compound 4] | 
10 | 32 |  | COc1ccc2[nH]c(C(=O)O)cc2c1 [compound 7] | 
